Values quoted from earlier work, collected in patent publication US7939561B2, “Blister packaging for acute pain regimens” (APR Applied Pharma Research s.a., priority 2006, dated 2011).

O=C(O)Cc1ccccc1Nc1c(Cl)cccc1Cl [diclofenac potassium]
behaviour in an acidic environment: tendency to precipitate
